Reference: US20220289794A1, “SYNTHETIC ANTIMICROBIAL PEPTIDES” (priority 2019, published 2022)
Converted amounts (≈) assume the structure as drawn. Non-standard residues stand in square brackets, D forms with d. Residues, ends and D or L forms follow the SMILES beside them. Dip = N[C@H](C(=O)O)C(c1ccccc1)c1ccccc1; 2Nal = N[C@@H](Cc1ccc2ccccc2c1)C(=O)O

Experiments:
[1] = system: Methicillin-resistant Staphylococcus aureus MRSA (ATCC BAA-1556); settings: ATCC BAA-1556
[2] = system: S. aureus ATCC 29213; settings: ATCC 29213
[3] = system: Pseudomonas aeruginosa (ATCC 27883); settings: ATCC 27883
[4] = system: Escherichia coli (ATCC 25922); settings: ATCC 25922
[5] = system: human red blood cells; design: unit not given beside the values

## NCCCC[C@@H]1NC(=O)[C@H](CCCCN)NC(=O)[C@H](CCCCN)NC(=O)[C@H](C(c2ccccc2)c2ccccc2)NC(=O)[C@H](C(c2ccccc2)c2ccccc2)NC(=O)[C@H](C(c2ccccc2)c2ccccc2)NC(=O)[C@H](CCCCN)NC1=O [IFX-014, c[Lys-Lys-Lys-Lys-Dip-Dip-Dip]] (cyclo([Dip][Dip][Dip]KKKK))
[1]
  MIC MRSA ATCC BAA-1556: 12.5 µg/mL (≈ 10.6 µM)
[2]
  MIC S. aureus ATCC 29213: 12.5 µg/mL (≈ 10.6 µM)
[3]
  MIC P. aeruginosa ATCC 27883: >100 µg/mL
[4]
  MIC E. coli ATCC 25922: >100 µg/mL
[5]
  HC50: 415

## NCCCC[C@@H]1NC(=O)[C@H](CCCCN)NC(=O)[C@H](CCCCN)NC(=O)[C@H](C(c2ccccc2)c2ccccc2)NC(=O)[C@H](C(c2ccccc2)c2ccccc2)NC(=O)[C@H](C(c2ccccc2)c2ccccc2)NC(=O)[C@H](CCCCN)NC(=O)[C@H](CCCCN)NC1=O [IFX-015, c[Lys-Lys-Lys-Lys-Lys-Dip-Dip-Dip]] (cyclo([Dip][Dip][Dip]KKKKK))
[1]
  MIC MRSA ATCC BAA-1556: 12.5 µg/mL (≈ 9.54 µM)
[2]
  MIC S. aureus ATCC 29213: 6.2 µg/mL (≈ 4.73 µM)
[3]
  MIC P. aeruginosa ATCC 27883: >100 µg/mL
[4]
  MIC E. coli ATCC 25922: 50 µg/mL (≈ 38.1 µM)
[5]
  HC50: 480

## N=C(N)NCCC[C@H](NC(=O)[C@@H](NC(=O)[C@@H](NC(=O)[C@H](CCCNC(=N)N)NC(=O)[C@H](CCCNC(=N)N)NC(=O)[C@@H](NC(=O)[C@@H](N)CCCNC(=N)N)C(c1ccccc1)c1ccccc1)C(c1ccccc1)c1ccccc1)C(c1ccccc1)c1ccccc1)C(=O)O [IFX-016-1, NH2-Arg-Dip-Arg-Arg-Dip-Dip-Arg-OH] (H-R[Dip]RR[Dip][Dip]R-OH)
[1]
  MIC MRSA ATCC BAA-1556: 25 µg/mL (≈ 19 µM)
[2]
  MIC S. aureus ATCC 29213: 12.5 µg/mL (≈ 9.52 µM)
[3]
  MIC P. aeruginosa ATCC 27883: >100 µg/mL
[4]
  MIC E. coli ATCC 25922: 25 µg/mL (≈ 19 µM)
[5]
  HC50: 320

## N=C(N)NCCC[C@H](NC(=O)[C@H](CCCNC(=N)N)NC(=O)[C@@H](NC(=O)[C@@H](NC(=O)[C@H](CCCNC(=N)N)NC(=O)[C@@H](N)CCCNC(=N)N)C(c1ccccc1)c1ccccc1)C(c1ccccc1)c1ccccc1)C(=O)N[C@H](C(=O)O)C(c1ccccc1)c1ccccc1 [IFX-017-1, NH2-Arg-Arg-Dip-Dip-Arg-Arg-Dip-OH] (H-RR[Dip][Dip]RR[Dip]-OH)
[1]
  MIC MRSA ATCC BAA-1556: 12.5 µg/mL (≈ 9.52 µM)
[2]
  MIC S. aureus ATCC 29213: 12.5 µg/mL (≈ 9.52 µM)
[3]
  MIC P. aeruginosa ATCC 27883: 25 µg/mL (≈ 19 µM)
[4]
  MIC E. coli ATCC 25922: 25 µg/mL (≈ 19 µM)
[5]
  HC50: 370

## N=C(N)NCCC[C@H](NC(=O)[C@H](Cc1ccc2ccccc2c1)NC(=O)[C@H](Cc1ccc2ccccc2c1)NC(=O)[C@H](CCCNC(=N)N)NC(=O)[C@H](CCCNC(=N)N)NC(=O)[C@H](Cc1ccc2ccccc2c1)NC(=O)[C@@H](N)CCCNC(=N)N)C(=O)O [IFX-018-1, NH2-Arg-NaI-Arg-Arg-NaI-NaI-Arg-OH] (H-R[2Nal]RR[2Nal][2Nal]R-OH)
[1]
  MIC MRSA ATCC BAA-1556: 25 µg/mL (≈ 20.3 µM)
[2]
  MIC S. aureus ATCC 29213: 12.5 µg/mL (≈ 10.1 µM)
[3]
  MIC P. aeruginosa ATCC 27883: 50 µg/mL (≈ 40.5 µM)
[4]
  MIC E. coli ATCC 25922: 25 µg/mL (≈ 20.3 µM)
[5]
  HC50: 405

## N=C(N)NCCC[C@H](NC(=O)[C@H](CCCNC(=N)N)NC(=O)[C@H](Cc1ccc2ccccc2c1)NC(=O)[C@H](Cc1ccc2ccccc2c1)NC(=O)[C@H](CCCNC(=N)N)NC(=O)[C@@H](N)CCCNC(=N)N)C(=O)N[C@@H](Cc1ccc2ccccc2c1)C(=O)O [IFX-019-1, NH2-Arg-Arg-NaI-NaI-Arg-Arg-NaI-OH] (H-RR[2Nal][2Nal]RR[2Nal]-OH)
[1]
  MIC MRSA ATCC BAA-1556: 25 µg/mL (≈ 20.3 µM)
[2]
  MIC S. aureus ATCC 29213: 12.5 µg/mL (≈ 10.1 µM)
[3]
  MIC P. aeruginosa ATCC 27883: 25 µg/mL (≈ 20.3 µM)
[4]
  MIC E. coli ATCC 25922: 25 µg/mL (≈ 20.3 µM)
[5]
  HC50: 395

## N=C(N)NCCC[C@H](NC(=O)[C@H](CCCNC(=N)N)NC(=O)[C@@H](N)CCCNC(=N)N)C(=O)N[C@@H](Cc1c[nH]c2ccccc12)C(=O)N[C@H](C(=O)N[C@H](C(=O)O)C(c1ccccc1)c1ccccc1)C(c1ccccc1)c1ccccc1 [IFX-020-1, NH2-R-R-R-Trp-Dip-Dip-OH] (H-RRRW[Dip][Dip]-OH)
[1]
  MIC MRSA ATCC BAA-1556: 6.2 µg/mL (≈ 5.54 µM)
[2]
  MIC S. aureus ATCC 29213: 6.2 µg/mL (≈ 5.54 µM)
[3]
  MIC P. aeruginosa ATCC 27883: 25 µg/mL (≈ 22.3 µM)
[4]
  MIC E. coli ATCC 25922: 6.2 µg/mL (≈ 5.54 µM)
[5]
  HC50: 310

## N=C(N)NCCC[C@H](NC(=O)[C@H](CCCNC(=N)N)NC(=O)[C@@H](N)CCCNC(=N)N)C(=O)N[C@H](C(=O)N[C@@H](Cc1c[nH]c2ccccc12)C(=O)N[C@H](C(=O)O)C(c1ccccc1)c1ccccc1)C(c1ccccc1)c1ccccc1 [IFX-021-1, NH2-R-R-R-Dip-Trp-Dip-OH] (H-RRR[Dip]W[Dip]-OH)
[1]
  MIC MRSA ATCC BAA-1556: 6.2 µg/mL (≈ 5.54 µM)
[2]
  MIC S. aureus ATCC 29213: 6.2 µg/mL (≈ 5.54 µM)
[3]
  MIC P. aeruginosa ATCC 27883: 50 µg/mL (≈ 44.7 µM)
[4]
  MIC E. coli ATCC 25922: 12.5 µg/mL (≈ 11.2 µM)
[5]
  HC50: 325

## N=C(N)NCCC[C@H](NC(=O)[C@H](CCCNC(=N)N)NC(=O)[C@@H](N)CCCNC(=N)N)C(=O)N[C@H](C(=O)N[C@H](C(=O)N[C@@H](Cc1c[nH]c2ccccc12)C(=O)O)C(c1ccccc1)c1ccccc1)C(c1ccccc1)c1ccccc1 [IFX-022-1, NH2-R-R-R-Dip-Dip-Trp-OH] (H-RRR[Dip][Dip]W-OH)
[1]
  MIC MRSA ATCC BAA-1556: 12.5 µg/mL (≈ 11.2 µM)
[2]
  MIC S. aureus ATCC 29213: 12.5 µg/mL (≈ 11.2 µM)
[3]
  MIC P. aeruginosa ATCC 27883: 50 µg/mL (≈ 44.7 µM)
[4]
  MIC E. coli ATCC 25922: 25 µg/mL (≈ 22.3 µM)
[5]
  HC50: 380

## N=C(N)NCCC[C@H](NC(=O)[C@H](CCCNC(=N)N)NC(=O)[C@@H](N)CCCNC(=N)N)C(=O)N[C@@H](Cc1c[nH]c2ccccc12)C(=O)N[C@@H](Cc1ccc2ccccc2c1)C(=O)N[C@@H](Cc1ccc2ccccc2c1)C(=O)O [IFX-023-1, NH2-R-R-R-Trp-NaI-NaI-OH] (H-RRRW[2Nal][2Nal]-OH)
[1]
  MIC MRSA ATCC BAA-1556: 6.2 µg/mL (≈ 5.81 µM)
[2]
  MIC S. aureus ATCC 29213: 6.2 µg/mL (≈ 5.81 µM)
[3]
  MIC P. aeruginosa ATCC 27883: 25 µg/mL (≈ 23.4 µM)
[4]
  MIC E. coli ATCC 25922: 12.5 µg/mL (≈ 11.7 µM)
[5]
  HC50: 495

## N=C(N)NCCC[C@H](NC(=O)[C@H](CCCNC(=N)N)NC(=O)[C@@H](N)CCCNC(=N)N)C(=O)N[C@@H](Cc1ccc2ccccc2c1)C(=O)N[C@@H](Cc1c[nH]c2ccccc12)C(=O)N[C@@H](Cc1ccc2ccccc2c1)C(=O)O [IFX-024-1, NH2-R-R-R-NaI-Trp-NaI-OH] (H-RRR[2Nal]W[2Nal]-OH)
[1]
  MIC MRSA ATCC BAA-1556: 6.2 µg/mL (≈ 5.81 µM)
[2]
  MIC S. aureus ATCC 29213: 6.2 µg/mL (≈ 5.81 µM)
[3]
  MIC P. aeruginosa ATCC 27883: 25 µg/mL (≈ 23.4 µM)
[4]
  MIC E. coli ATCC 25922: 12.5 µg/mL (≈ 11.7 µM)
[5]
  HC50: 410

## N=C(N)NCCC[C@H](NC(=O)[C@H](CCCNC(=N)N)NC(=O)[C@@H](N)CCCNC(=N)N)C(=O)N[C@@H](Cc1ccc2ccccc2c1)C(=O)N[C@@H](Cc1ccc2ccccc2c1)C(=O)N[C@@H](Cc1c[nH]c2ccccc12)C(=O)O [IFX-025-1, NH2-R-R-R-NaI-NaI-Trp-OH] (H-RRR[2Nal][2Nal]W-OH)
[1]
  MIC MRSA ATCC BAA-1556: 12.5 µg/mL (≈ 11.7 µM)
[2]
  MIC S. aureus ATCC 29213: 12.5 µg/mL (≈ 11.7 µM)
[3]
  MIC P. aeruginosa ATCC 27883: 50 µg/mL (≈ 46.8 µM)
[4]
  MIC E. coli ATCC 25922: 25 µg/mL (≈ 23.4 µM)
[5]
  HC50: 375
